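Where inhibition never reached the appropriate level, the endpoint shown equals the highest concentration tested. Otherwise, values were interpolated linearly from a five-concentration, 48-hour dose response in 96-well plates. Definition used: TGI = concentration required for complete inhibition of growth.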
Columns and labels:
Experiment in all cases: NCI tumour cell line growth inhibition, 48 h
786-0 renal = system: 786-0 renal
A498 renal = system: A498 renal
A549 NSCLC = system: A549 NSCLC
CAKI-1 renal = system: CAKI-1 renal
CCRF-CEM leukemia = system: CCRF-CEM leukemia
COLO 205 colon = system: COLO 205 colon
DLD-1 colon = system: DLD-1 colon
DMS 114 small cell lung = system: DMS 114 small cell lung
DMS 273 small cell lung = system: DMS 273 small cell lung
EKVX NSCLC = system: EKVX NSCLC
HCC-2998 colon = system: HCC-2998 colon
HCT-116 colon = system: HCT-116 colon
HCT-15 colon = system: HCT-15 colon
HL-60(TB) leukemia = system: HL-60(TB) leukemia
HOP-18 NSCLC = system: HOP-18 NSCLC
HOP-62 NSCLC = system: HOP-62 NSCLC
HOP-92 NSCLC = system: HOP-92 NSCLC
HT29 colon = system: HT29 colon
IGROV1 ovarian = system: IGROV1 ovarian
K-562 leukemia = system: K-562 leukemia
KM12 colon = system: KM12 colon
KM20L2 colon = system: KM20L2 colon
LOX IMVI melanoma = system: LOX IMVI melanoma
LXFL 529 NSCLC = system: LXFL 529 NSCLC
M14 melanoma = system: M14 melanoma
M19-MEL melanoma = system: M19-MEL melanoma
MALME-3M melanoma = system: MALME-3M melanoma
MOLT-4 leukemia = system: MOLT-4 leukemia
NCI-H226 lung = system: NCI-H226 lung
NCI-H23 lung = system: NCI-H23 lung
NCI-H460 lung = system: NCI-H460 lung
NCI-H522 lung = system: NCI-H522 lung
OVCAR-3 ovarian = system: OVCAR-3 ovarian
OVCAR-4 ovarian = system: OVCAR-4 ovarian
OVCAR-5 ovarian = system: OVCAR-5 ovarian
OVCAR-8 ovarian = system: OVCAR-8 ovarian
RPMI-8226 leukemia = system: RPMI-8226 leukemia
SF-268 CNS = system: SF-268 CNS
SF-295 CNS = system: SF-295 CNS
SF-539 CNS = system: SF-539 CNS
SK-MEL-2 melanoma = system: SK-MEL-2 melanoma
SK-MEL-28 melanoma = system: SK-MEL-28 melanoma
SK-MEL-5 melanoma = system: SK-MEL-5 melanoma
SK-OV-3 ovarian = system: SK-OV-3 ovarian
SN12C renal = system: SN12C renal
SNB-19 CNS = system: SNB-19 CNS
SNB-75 CNS = system: SNB-75 CNS
SW-620 colon = system: SW-620 colon
TK-10 renal = system: TK-10 renal
U251 CNS = system: U251 CNS
UACC-62 melanoma = system: UACC-62 melanoma
ACHN renal = system: ACHN renal
SNB-78 CNS = system: SNB-78 CNS
SR leukemia = system: SR leukemia
UACC-257 melanoma = system: UACC-257 melanoma
UO-31 renal = system: UO-31 renal

CCCC(=O)c1ccc2c(ccc(=O)n2C)c1
TGI (786-0 renal): > 100 µM | TGI (A498 renal): > 100 µM | TGI (A549 NSCLC): > 100 µM | TGI (CAKI-1 renal): > 100 µM | TGI (CCRF-CEM leukemia): > 100 µM | TGI (COLO 205 colon): > 100 µM | TGI (DLD-1 colon): > 100 µM | TGI (DMS 114 small cell lung): > 100 µM | TGI (DMS 273 small cell lung): > 100 µM | TGI (EKVX NSCLC): > 100 µM | TGI (HCC-2998 colon): > 100 µM | TGI (HCT-116 colon): > 100 µM | TGI (HCT-15 colon): > 100 µM | TGI (HL-60(TB) leukemia): > 100 µM | TGI (HOP-18 NSCLC): > 100 µM | TGI (HOP-62 NSCLC): > 100 µM | TGI (HOP-92 NSCLC): > 100 µM | TGI (HT29 colon): > 100 µM | TGI (IGROV1 ovarian): > 100 µM | TGI (K-562 leukemia): > 100 µM | TGI (KM12 colon): > 100 µM | TGI (KM20L2 colon): > 100 µM | TGI (LOX IMVI melanoma): > 100 µM | TGI (LXFL 529 NSCLC): > 100 µM | TGI (M14 melanoma): > 100 µM | TGI (M19-MEL melanoma): > 100 µM | TGI (MALME-3M melanoma): > 100 µM | TGI (MOLT-4 leukemia): > 100 µM | TGI (NCI-H226 lung): > 100 µM | TGI (NCI-H23 lung): > 100 µM | TGI (NCI-H460 lung): > 100 µM | TGI (NCI-H522 lung): > 100 µM | TGI (OVCAR-3 ovarian): > 100 µM | TGI (OVCAR-4 ovarian): > 100 µM | TGI (OVCAR-5 ovarian): > 100 µM | TGI (OVCAR-8 ovarian): > 100 µM | TGI (RPMI-8226 leukemia): > 100 µM | TGI (SF-268 CNS): > 100 µM | TGI (SF-295 CNS): > 100 µM | TGI (SF-539 CNS): > 100 µM | TGI (SK-MEL-2 melanoma): > 100 µM | TGI (SK-MEL-28 melanoma): > 100 µM | TGI (SK-MEL-5 melanoma): > 100 µM | TGI (SK-OV-3 ovarian): > 100 µM | TGI (SN12C renal): > 100 µM | TGI (SNB-19 CNS): > 100 µM | TGI (SNB-75 CNS): 92.3 µM | TGI (SW-620 colon): > 100 µM | TGI (TK-10 renal): > 100 µM | TGI (U251 CNS): > 100 µM | TGI (UACC-62 melanoma): > 100 µM

O=C1[C@H]2ON(c3ccccc3)C(c3ccc(Cl)cc3Cl)[C@H]2C(=O)N1c1ccc(Cc2ccc(N3C(=O)[C@@H]4ON(c5ccccc5)C(c5ccc(Cl)cc5Cl)[C@@H]4C3=O)cc2)cc1 (some centres not stated)
TGI (786-0 renal): > 100 µM | TGI (A498 renal): > 100 µM | TGI (A549 NSCLC): > 100 µM | TGI (ACHN renal): > 100 µM | TGI (CAKI-1 renal): > 100 µM | TGI (CCRF-CEM leukemia): > 100 µM | TGI (COLO 205 colon): > 100 µM | TGI (DLD-1 colon): > 100 µM | TGI (DMS 114 small cell lung): > 100 µM | TGI (DMS 273 small cell lung): > 100 µM | TGI (EKVX NSCLC): > 100 µM | TGI (HCC-2998 colon): > 100 µM | TGI (HCT-116 colon): > 100 µM | TGI (HCT-15 colon): > 100 µM | TGI (HL-60(TB) leukemia): > 100 µM | TGI (HOP-18 NSCLC): > 100 µM | TGI (HOP-62 NSCLC): > 100 µM | TGI (HOP-92 NSCLC): > 100 µM | TGI (HT29 colon): > 100 µM | TGI (IGROV1 ovarian): > 100 µM | TGI (K-562 leukemia): > 100 µM | TGI (KM12 colon): > 100 µM | TGI (KM20L2 colon): > 100 µM | TGI (LOX IMVI melanoma): > 100 µM | TGI (LXFL 529 NSCLC): > 100 µM | TGI (M14 melanoma): 69 µM | TGI (M19-MEL melanoma): > 100 µM | TGI (MALME-3M melanoma): > 100 µM | TGI (MOLT-4 leukemia): > 100 µM | TGI (NCI-H226 lung): > 100 µM | TGI (NCI-H23 lung): > 100 µM | TGI (NCI-H460 lung): > 100 µM | TGI (NCI-H522 lung): > 100 µM | TGI (OVCAR-3 ovarian): > 100 µM | TGI (OVCAR-4 ovarian): > 100 µM | TGI (OVCAR-5 ovarian): > 100 µM | TGI (OVCAR-8 ovarian): > 100 µM | TGI (RPMI-8226 leukemia): > 100 µM | TGI (SF-268 CNS): > 100 µM | TGI (SF-295 CNS): > 100 µM | TGI (SF-539 CNS): > 100 µM | TGI (SK-MEL-2 melanoma): > 100 µM | TGI (SK-MEL-28 melanoma): > 100 µM | TGI (SK-MEL-5 melanoma): > 100 µM | TGI (SK-OV-3 ovarian): > 100 µM | TGI (SN12C renal): > 100 µM | TGI (SNB-19 CNS): > 100 µM | TGI (SNB-75 CNS): > 100 µM | TGI (SNB-78 CNS): > 100 µM | TGI (SR leukemia): > 100 µM | TGI (SW-620 colon): > 100 µM | TGI (TK-10 renal): > 100 µM | TGI (U251 CNS): > 100 µM | TGI (UACC-257 melanoma): > 100 µM | TGI (UACC-62 melanoma): > 100 µM | TGI (UO-31 renal): > 100 µM

— PubChem BioAssay (NCI)
